# Measured values as given in patent US20220227782A1, “COMPOUND FOR INHIBITING RORyt ACTIVITY, PREPARATION METHOD THEREFOR AND APPLICATION THEREOF” (CELLREGEN (BEIJING) LIFE SCIENCE AND TECHNOLOGY CO., LTD., priority 2019, published 2022).
# Columns and labels:
# [1] = target: T1, RORγt (Homo sapiens, UniProt P51449); assay: EC50 test, inhibition of RORγt transcription activity (luciferase activity reporter system) in RORγt-LBD+-Jurkat cells; type: cell-based; settings: for EC50: half maximal effective concentration against RORγt-LBD+-Jurkat cells
# T1 construct: half maximal effective concentration against RORγt-LBD+-Jurkat cells; expressed in transfected cells; host or cells: Jurkat
# T1 sequence (P51449 269-508 limits assumed): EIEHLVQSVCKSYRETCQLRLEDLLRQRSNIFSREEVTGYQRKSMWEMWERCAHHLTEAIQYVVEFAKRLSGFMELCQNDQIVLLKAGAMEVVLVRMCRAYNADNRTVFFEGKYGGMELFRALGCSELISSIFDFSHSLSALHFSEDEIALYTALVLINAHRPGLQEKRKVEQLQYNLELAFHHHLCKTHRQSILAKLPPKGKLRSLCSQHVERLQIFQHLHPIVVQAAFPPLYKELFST
# Description: (§1) EC50 and CC50 tests: EC50 (half maximal (50%) effective concentration) is a half maximal effective concentration against RORγt-LBD+-Jurkat cells, and CC50 (median (50%) cytotoxic concentration) is a median cytotoxic concentration against RORγt-LBD+-Jurkat cells.
# [2] = CC50 test, median cytotoxic concentration against RORγt-LBD+-Jurkat cells; type: cell-based; settings: human
# Description: as §1
# [3] = test system: IL-17A; assay: Intracellular protein expression of IL-17A (flow cytometer), Th17 cells; type: cell-based; settings: FIG. 21; 1.56, 3.12 and 6.25 μM compound vs solvent group
# Description: The compound for inhibiting RORγt activity as described above may be used in preparation of a therapeutic formulation for the treatment of autoimmune diseases, in preparation of a formulation that inhibits formation of a Th17 cell, in preparation of a formulation that inhibits the RORγt transcription activity, or in preparation of a formulation that inhibits transcription and expression of IL17A gene and/or IL17F gene. The compounds having the structural formula (A) has a good inhibitory effect on RORγt activity. […] Therefore, the compound may be used to produce a formulation of corresponding activity inhibitor, and provide a leading structure for the development of therapeutic drugs for autoimmune diseases.
# (§2) In the figure, the results of solvent group, 1.56 μM compound group, 3.12 μM compound group, and 6.25 μM compound group are shown from left to right.
# [4] = test system: RORγt, IL17A, IL-17F mRNA; assay: mRNA expression of RORγt, IL17A and IL-17F in Th17 cell differentiation in vitro; type: cell-based; settings: FIG. 22, 1.56, 3.12 and 6.25 μM compound vs solvent group
# Procedure: as §2
# [5] = test system: EAE; settings: high concentrations (40 mg/kg); cited from earlier work
# [6] = test system: Th17 cells; settings: cited from earlier work
# [7] = test system: other RORs; settings: cited from earlier work
Compound,EC50 [1],CC50 [2],also measured
Cc1nc(Sc2nnnn2-c2ccccc2)c2c3c(sc2n1)CCCC3 [Compound 6],2.79 µM,3.98 µM,"inhibition of intracellular protein expression of IL-17A (in words) [3]: significant inhibitory effects; inhibition of mRNA expression of RORγt, IL17A and IL-17F (in words) [4]: significant inhibitory effects"
Cc1nc(Sc2nnnn2-c2ccccc2)c2c3c(sc2n1)CC(C)CC3 (stereo not drawn) [Compound 7],> 10 µM,> 10 µM,–
CCC1CCc2c(sc3nc(C)nc(Sc4nnnn4-c4ccccc4)c23)C1 (stereo not drawn) [Compound 8],> 10 µM,> 10 µM,–
CCCC1CCc2c(sc3nc(C)nc(Sc4nnnn4-c4ccccc4)c23)C1 (stereo not drawn) [Compound 9],> 10 µM,> 10 µM,–
Cc1nc(Sc2nnnn2-c2ccccc2)c2c3c(sc2n1)CC(C(C)(C)C)CC3 (stereo not drawn) [Compound 11],8.25 µM,< 1 µM,–
Cc1nc(Sc2nnnn2-c2ccccc2)c2c3c(sc2n1)CC(F)(F)CC3 [Compound 12],1.35 µM,< 1 µM,–
Cc1nc(Sc2nnnn2-c2ccccc2)c2c3c(sc2n1)CC(C(=O)O)CC3 (stereo not drawn) [Compound 14],> 20 µM,> 10 µM,–
Cc1nc(Sc2nnnn2-c2ccccc2)c2c3c(sc2n1)CC(C(=O)NC1CCOCC1)CC3 (stereo not drawn) [Compound 15],> 10 µM,< 10 µM,–
Cc1cccc(NC(=O)C2CCc3c(sc4nc(C)nc(Sc5nnnn5-c5ccccc5)c34)C2)c1 (stereo not drawn) [Compound 16],> 10 µM,< 10 µM,–
Cc1nc(Sc2nnnn2-c2ccccc2)c2c3c(sc2n1)CC(C(=O)Nc1ccc(C(C)C)cc1)CC3 (stereo not drawn) [Compound 17],> 10 µM,< 1 µM,–
Cc1nc(Sc2nnnn2-c2ccccc2)c2c3c(sc2n1)CC(C(=O)NCc1ccccc1)CC3 (stereo not drawn) [Compound 18],12.6 µM,> 10 µM,–
Cc1nc(Sc2nnnn2-c2ccccc2)c2c3c(sc2n1)CC(C(=O)Nc1cccc(Cl)c1)CC3 (stereo not drawn) [Compound 19],> 10 µM,< 10 µM,–
Cc1nc(Sc2nnnn2-c2ccccc2)c2c3c(sc2n1)CC(C(=O)Nc1ccc(Br)cc1)CC3 (stereo not drawn) [Compound 20],> 10 µM,< 10 µM,–
Cc1nc(Sc2nnnn2-c2ccccc2)c2c3c(sc2n1)CC(C(=O)Nc1nccs1)CC3 (stereo not drawn) [Compound 21],> 10 µM,< 10 µM,–
Cc1nc(Sc2nnnn2-c2ccccc2)c2c3c(sc2n1)CC(C(=O)Nc1ncc(C)s1)CC3 (stereo not drawn) [Compound 22],9.06 µM,4.32 µM,"inhibition of intracellular protein expression of IL-17A (in words) [3]: significant inhibitory effects; inhibition of mRNA expression of RORγt, IL17A and IL-17F (in words) [4]: significant inhibitory effects"
Cc1nc(Sc2nnnn2-c2ccccc2)c2c3c(sc2n1)CC(C(=O)Nc1cccnc1)CC3 (stereo not drawn) [Compound 23],> 10 µM,< 5 µM,–
Cc1nc(Sc2nnnn2-c2ccccc2)c2c3c(sc2n1)CC(C(=O)Nc1ccc(F)cn1)CC3 (stereo not drawn) [Compound 24],> 10 µM,< 10 µM,–
Cc1nc(Sc2nnnn2-c2ccccc2)c2c3c(sc2n1)CC(C(=O)Nc1nc2ccc(F)cc2s1)CC3 (stereo not drawn) [Compound 25],> 10 µM,< 5 µM,–
O=C(Cc1nc(Sc2nnnn2-c2ccccc2)c2c3c(sc2n1)CCCC3)Nc1nc2ccccc2[nH]1 [Compound 31],0.85 µM,9.18 µM,"inhibiting RORγt transcription activity (in words) ([1]; FIG. 20): significant effect; inhibition of intracellular protein expression of IL-17A (in words) [3]: significant inhibitory effects; inhibition of mRNA expression of RORγt, IL17A and IL-17F (in words) [4]: significant inhibitory effects"
CC(=O)Nc1nc(C)c(S(=O)(=O)Nc2ccc(C(O)(C(F)(F)F)C(F)(F)F)cc2)s1 [SR1001],–,–,reduction of clinical symptoms of EAE in vivo [5]: only reduce the clinical symptoms of EAE slightly; inhibition of differentiation of Th17 cells in vitro [6]: effectively inhibit the differentiation of Th17 cells; selectivity (interaction with other RORs) [7]: poor selectivity
